Measurements as given in patent US20250135021A1, “USE OF ANTIBODY-DRUG CONJUGATE, AND COMBINED DRUG AND USE THEREOF” (SHANGHAI MIRACOGEN INC., priority 2021, published 2025).

Columns and labels:
[1] = tested on: AZD9291-resistant human lung adenocarcinoma PDX model LUN #2005-143; assay: Efficacy in AZD9291-resistant human lung cancer PDX model LUN #2005-143; format: in vivo, immunodeficient mice; conditions: Day 29
From the text: (§1) The human-derived tumor tissue xenograft model (PDX model) is a tumor model established in immunodeficient mice using human tumor tissue, which retains the heterogeneity, molecular diversity and histological characteristics of the primary tumor to the greatest extent. It has a high predictive value for the clinical therapeutic effect of drugs and has been increasingly used in cancer research (Hidalgo-2014) in recent years. […] In all experiments, the commercially available third-generation EGFR inhibitor AZD9291 was used as a reference drug to compare tumor inhibition activities.
LUN #2005-143 is an AZD9291-resistant human lung adenocarcinoma (a type of NSCLC) PDX model. This experiment was performed in total of 4 groups, including a Vehicle group (ADC-3 vehicle), an AZD9291 administration group (5 mg/kg), and ADC-3 administration groups (1 mg/kg and 3 mg/kg). During the entire experiment, ADC-3 was administered four times in total, via tail vein injection on Day 0, Day 4, Day 8, and Day 12, and AZD9291 was administered 29 times in total, once a day by intragastric administration. […] In terms of body weight, all animals in the tested drug groups had good tolerance. […] In this experiment, tumor-bearing mice had good tolerance to the tested drugs.

[2] = tested on: AZD9291-resistant human adenosquamous carcinoma of the lung PDX model LUN #2210-4a; assay: Efficacy in AZD9291-resistant human lung cancer PDX model LUN #2210-4a; format: in vivo, immunodeficient mice; conditions: Day 28
From the text: as §1
(§2) LUN #2210-4a is an AZD9291-resistant human adenosquamous carcinoma of the lung PDX model. […] During the entire experiment, ADC-3 was administered four times in total, via tail vein injection on Day 0, Day 4, Day 8, and Day 12, and AZD9291 was administered 28 times in total, once a day by intragastric administration. […] Tumor-bearing mice had good tolerance to the tested drugs.

[3] = tested on: AZD9291-resistant human adenosquamous carcinoma of the lung PDX model LUN #2210-106; assay: Efficacy in AZD9291-resistant human lung cancer PDX model LUN #2210-106; format: in vivo, immunodeficient mice; conditions: Day 30
From the text: as §1
LUN #2210-106 is an AZD9291-resistant human adenosquamous carcinoma of the lung PDX model. This experiment was performed in total of 4 groups, including a Vehicle group (ADC-3 vehicle), an AZD9291 administration group (5 mg/kg), and ADC-3 administration groups (1 mg/kg and 3 mg/kg). During the entire experiment, ADC-3 was administered four times in total, via tail vein injection on Day 0, Day 4, Day 8, and Day 12, and AZD9291 was administered 30 times in total, once a day by intragastric administration. […] Tumor-bearing mice had good tolerance to the tested drugs.

[4] = tested on: AZD9291-resistant human large cell lung carcinoma PDX model LUN #2355-128; assay: Efficacy in AZD9291-resistant human lung cancer PDX model LUN #2355-128; format: in vivo, immunodeficient mice; conditions: Day 16
Method: as §1, with “extent.” for “extent. It has a high predictive value for the clinical therapeutic effect of drugs and has been increasingly used in cancer research (Hidalgo-2014) in recent years.”
This experiment was performed in total of 4 groups, including a Vehicle group (ADC-3 vehicle), an AZD9291 administration group (5 mg/kg), and ADC-3 administration groups (1 mg/kg and 3 mg/kg). During the entire experiment, ADC-3 was administered four times in total, via tail vein injection on Day 0, Day 4, Day 8, and Day 12, and AZD9291 was administered 27 times in total, once a day by intragastric administration. The experiment period was 27 days.

[5] = tested on: AZD9291-resistant human adenosquamous carcinoma of the lung PDX model LUN #2441-118; assay: Efficacy in AZD9291-resistant human lung cancer PDX model LUN #2441-118; format: in vivo, immunodeficient mice; conditions: Day 25
From the text: as §1
as §2, with “#2441-118” for “#2210-4a”, “administration. The experiment period was 28 days.” for “administration.”

[6] = tested on: human lung cancer PDX model LUN #2210-106; assay: Efficacy of MYK-3, AK103 and their combination in human lung cancer PDX model LUN #2210-106 in Hu-HSC-NPG mice; format: in vivo; conditions: Day 20
Method: LUN #2210-106 is an AZD9291-resistant human adenosquamous carcinoma of the lung PDX model. This experiment was performed in total of 4 groups, including a Vehicle group (ADC-3 vehicle), an ADC-3 administration group (1 mg/kg), an AK103 administration group (5 mg/kg), and an ADC-3 (1 mg/kg)+AK103 (5 mg/kg) administration group. During the entire experiment, ADC-3 was administered three times in total for the ADC-3 single-drug administration group, via tail vein injection on Day 0, Day 4, and Day 8; and AK103 was administered every three days via tail vein injection for the AK103 single-drug administration group, 8 times in total. For the ADC-3+AK103 administration group, ADC-3 was administered three times, and AK103 was administered ten times in total, and their administration modes were the same as those for the single-drug administration groups. The experiment period was 34 days. […] During the period from Day 20 to Day 34, the mean tumor volume of animals in the ADC-3 (1 mg/kg) administration group gradually resumed growth (from 184 mm^3 to 893 mm^3); the mean tumor volume of animals in the ADC-3 (1 mg/kg)+AK103 (5 mg/kg) administration group grew slowly (from 38 mm^3 to 126 mm^3), and on Day 34, complete tumor regression was still observed in 1 out of 6 animals.

[7] = 5 mg/kg intragastric once a day
[8] = AZD9291 dose 3 mg/kg in Table 4

C=CC(=O)Nc1cc(Nc2nccc(-c3cn(C)c4ccccc34)n2)c(OC)cc1N(C)CCN(C)C [AZD9291, osimertinib, reference compound]
Relative tumor proliferation rate T/C (%) [1, 7]: 36.90%
Tumor growth inhibition rate TGI % [1, 7]: 63.10%
Tumor inhibition activity ([1]; 5 mg/kg): ++ (T/C (%) >20% and ≤40%)
Relative tumor proliferation rate T/C (%) [2, 7]: 68.99%
Tumor growth inhibition rate TGI % [2, 7]: 31.01%
Tumor growth inhibition rate TGI % [2, 8]: 31.01%
Tumor inhibition activity [2, 8]: + (T/C (%) >40%)
Relative tumor proliferation rate T/C (%) [3, 7]: 65.31%
Tumor growth inhibition rate TGI % [3, 7]: 34.69%
Tumor inhibition activity ([3]; 5 mg/kg): + (T/C (%) >40%)
Relative tumor proliferation rate T/C (%) [4, 7]: 33.61%
Tumor growth inhibition rate TGI % [4, 7]: 66.39%
Tumor inhibition activity ([4]; 5 mg/kg): ++ (T/C (%) >20% and ≤40%)
Relative tumor proliferation rate T/C (%) [5, 7]: 29.35%
Tumor growth inhibition rate TGI % [5, 7]: 70.65%
Relative tumor proliferation rate T/C (%) [5, 8]: 29.35%
Tumor inhibition activity [5, 8]: ++ (T/C (%) >20% and ≤40%)

AK103: anti-PD-1 monoclonal antibody drug and immune checkpoint inhibitor
Relative tumor proliferation rate T/C (%) ([6]; 5 mg/kg i.v. every three days): 93.61%
Tumor growth inhibition rate TGI % ([6]; 5 mg/kg i.v. every three days): 6.39%
Tumor inhibition activity ([6]; 5 mg/kg): + (T/C (%) >40%)
